The term inhibition denotes the relative decrease from the control value, in per cent. What is called CC50 is the concentration giving 50% cytotoxicity.

The structures appear in SMILES notation. Active and inactive are the calls of the source. The calls are words filed in the database; no cut-off is given here.

For series [1], the system named is COL1A1 promoter. In words: Inhibition of COL1A1 promotor activity in human LX2 cells at 20 uM incubated for 24 hrs by luciferase reporter gene assay. The format is cell-based. In general terms: Reporter assays use an easily measured gene product as a stand-in for the process of interest.
A short description of series [2]: Cytotoxicity against human LX2 cells assessed as cell death incubated for 24 hrs by MTT assay. Format: cell-based, LX-2. (In general: Tetrazolium dyes change colour on reduction, which living cells bring about.)
In series [3] the test system is COL1A1 promoter. Kind of series: Inhibition of COL1A1 promotor activity in human LX2 cells at 50 uM incubated for 24 hrs by luciferase reporter gene assay. The format is cell-based.

For the compound `CN(C)c1ccc2c(=O)c(C(=O)Nc3cc(F)cc(F)c3)cn(-c3ccc(Cl)c(OCCCCCCC[N+]4(C)CCCC4)c3)c2n1`, the inhibition in the series with COL1A1 promoter [1] came to 51%; with COL1A1 promoter [3] it was 76.1%. Also, the CC50 at 24 h in series [2] came out at 54.5 µM.
Consider `CC[N+]1(CCCCCCCOc2ccc(-n3cc(C(=O)Nc4cc(F)cc(F)c4)c(=O)c4ccc(N(C)C)nc43)c(F)c2)CCCCC1`, for which the inhibition entry in the series with COL1A1 promoter [1] and in the series with COL1A1 promoter [3] was “inactive” each time. The CC50 at 24 h in series [2] is less than 20 µM.
In the case of `CN(C)c1ccc2c(=O)c(C(=O)Nc3cc(F)cc(F)c3)cn(-c3ccc(OCCCCCCC[N+]4(C)CCCC4)cc3Cl)c2n1`, the inhibition result with COL1A1 promoter [1] and with COL1A1 promoter [3] was “inactive” in each case. In series [2], the 50% cytotoxic concentration (CC50) at 24 h was less than 20 µM.
For `CN(C)c1ccc2c(=O)c(C(=O)Nc3cc(F)cc(F)c3)cn(-c3ccc(OCCCCCCC[N+]4(C)CCCCC4)cc3Cl)c2n1`, the inhibition entry in the series on COL1A1 promoter [1] and in the series on COL1A1 promoter [3] was “inactive” each time. In series [2], the CC50 at 24 h is less than 20 µM.
On to `CN(C)c1ccc2c(=O)c(C(=O)Nc3cc(F)cc(F)c3)cn(-c3ccc(OCCCCCCC[N+]4(C)CCCC4)cc3F)c2n1`, for which the inhibition result in the series with COL1A1 promoter [1] and in the series with COL1A1 promoter [3] was “inactive” throughout. The CC50 at 24 h in series [2] was less than 20 µM.
As for `Cc1cc(OCCCCCCC[N+](C)(C)C2CCCCC2)cc(-n2cc(C(=O)Nc3cc(F)cc(F)c3)c(=O)c3ccc(N(C)C)nc32)c1`, the inhibition was 52.5% in the series with COL1A1 promoter [1] and 89.1% in the series with COL1A1 promoter [3]. For the same compound, the CC50 at 24 h in series [2] worked out at 61.8 µM.
For the compound `Cc1cc(OCCCCCCC[N+]2(C)CCCC2)ccc1-n1cc(C(=O)Nc2cc(F)cc(F)c2)c(=O)c2ccc(N(C)C)nc21`, the inhibition result in the series on COL1A1 promoter [1] and with COL1A1 promoter [3] was “inactive” each time. For the same compound, the CC50 at 24 h in series [2] is less than 20 µM.
With `Cc1cc(OCCCCCCC[N+]2(C)CCN(C)CC2)ccc1-n1cc(C(=O)Nc2cc(F)cc(F)c2)c(=O)c2ccc(N(C)C)nc21`, the inhibition result with COL1A1 promoter [1] and in the series on COL1A1 promoter [3] was “inactive” throughout. The 50% cytotoxic concentration (CC50) at 24 h in series [2] was less than 20 µM.
In the case of `Cc1cc(-n2cc(C(=O)Nc3cc(F)cc(F)c3)c(=O)c3ccc(N(C)C)nc32)ccc1OCCCCCCC[N+]12CCN(CC1)CC2`, the inhibition came to 10.6% with COL1A1 promoter [1] and 20.8% in the series on COL1A1 promoter [3].
Consider `CC[N+]1(CCCCCCCOc2cc(-n3cc(C(=O)Nc4cc(F)cc(F)c4)c(=O)c4ccc(N(C)C)nc43)ccc2Cl)CCCC1`, for which the inhibition worked out at 46% in the series on COL1A1 promoter [1] and 96.4% in the series on COL1A1 promoter [3]. In series [2], the 50% cytotoxic concentration (CC50) at 24 h is 61.3 µM.
With `CC[N+]1(CCCCCCCOc2ccc(-n3cc(C(=O)Nc4cc(F)cc(F)c4)c(=O)c4ccc(N(C)C)nc43)c(Cl)c2)CCCC1`, the inhibition result with COL1A1 promoter [1] and in the series with COL1A1 promoter [3] was “inactive” in each case. The 50% cytotoxic concentration (CC50) at 24 h in series [2] was less than 20 µM.
As for `CN(C)c1ccc2c(=O)c(C(=O)Nc3cc(F)cc(F)c3)cn(-c3ccc(OCCCCCCC[n+]4ccccc4)cc3F)c2n1`, in the series on COL1A1 promoter [1], the inhibition was 15.4%. Moreover, the CC50 at 24 h in series [2] was less than 20 µM. For the same compound, in the series on COL1A1 promoter [3], the inhibition result is “inactive”.
For `CN(C)c1ccc2c(=O)c(C(=O)Nc3cc(F)cc(F)c3)cn(-c3ccc(OCCCCCCC[N+]45CCN(CC4)CC5)cc3Cl)c2n1`, the inhibition in the series on COL1A1 promoter [1] is 40.1%; in the series on COL1A1 promoter [3] it was 80%. The CC50 at 24 h in series [2] is 76.9 µM.
Consider `Cc1cc(OCCCCCCC[n+]2ccccc2)cc(-n2cc(C(=O)Nc3cc(F)cc(F)c3)c(=O)c3ccc(N(C)C)nc32)c1`, for which the inhibition in the series with COL1A1 promoter [1] came to 7.7%; in the series with COL1A1 promoter [3], 61%.
Consider `CN(C)c1ccc2c(=O)c(C(=O)Nc3cc(F)cc(F)c3)cn(-c3ccc(Cl)c(OCCCCCCC[N+]4(C)CCCCC4)c3)c2n1`, for which the inhibition in the series with COL1A1 promoter [1] worked out at 57.3%; in the series on COL1A1 promoter [3] it was 90.5%. Besides, the CC50 at 24 h in series [2] was found to be 72.6 µM.
As for `CN(C)c1ccc2c(=O)c(C(=O)Nc3cc(F)cc(F)c3)cn(-c3ccc(Cl)c(OCCCCCCC[N+]45CCN(CC4)CC5)c3)c2n1`, the inhibition with COL1A1 promoter [1] came out at 8.08%; in the series on COL1A1 promoter [3], 18.7%.
On to `CC[N+]1(CCCCCCCOc2ccc(-n3cc(C(=O)Nc4cc(F)cc(F)c4)c(=O)c4ccc(N(C)C)nc43)c(F)c2)CCCC1`, for which the inhibition entry in the series with COL1A1 promoter [1] and with COL1A1 promoter [3] was “inactive” each time. Besides, in series [2], the half-maximal cytotoxic concentration (CC50) at 24 h is less than 20 µM.
For `Cc1ccc(-n2cc(C(=O)Nc3cc(F)cc(F)c3)c(=O)c3ccc(N(C)C)nc32)cc1OCCCCCCC[N+]12CCN(CC1)CC2`, the inhibition in the series with COL1A1 promoter [1] was determined as 5.07%; in the series with COL1A1 promoter [3] it was 9.71%.
Consider `CC[N+]1(CCCCCCCOc2ccc(-n3cc(C(=O)Nc4cc(F)cc(F)c4)c(=O)c4ccc(N(C)C)nc43)c(Cl)c2)CCCCC1`, for which the inhibition entry in the series with COL1A1 promoter [1] and with COL1A1 promoter [3] was “inactive” in each case. In addition, in series [2], the CC50 at 24 h was less than 20 µM.
For `CN(C)c1ccc2c(=O)c(C(=O)Nc3cc(F)cc(F)c3)cn(-c3ccc(OCCCCCCC[n+]4ccccc4)cc3Cl)c2n1`, the inhibition result in the series on COL1A1 promoter [1] and with COL1A1 promoter [3] was “inactive” throughout.
On to `Cc1cc(OCCCCCCC[N+]23CCN(CC2)CC3)cc(-n2cc(C(=O)Nc3cc(F)cc(F)c3)c(=O)c3ccc(N(C)C)nc32)c1`, for which the inhibition was 10.3% with COL1A1 promoter [1] and 5.52% with COL1A1 promoter [3].
Turning to `CC[N+]1(CCCCCCCOc2cc(-n3cc(C(=O)Nc4cc(F)cc(F)c4)c(=O)c4ccc(N(C)C)nc43)ccc2Cl)CCCCC1`, the inhibition result in the series on COL1A1 promoter [1] and with COL1A1 promoter [3] was “inactive” throughout.
As for `Cc1cc(-n2cc(C(=O)Nc3cc(F)cc(F)c3)c(=O)c3ccc(N(C)C)nc32)ccc1OCCCCCCC[N+]1(C)CCN(C)CC1`, the values for the inhibition with COL1A1 promoter [1] and in the series on COL1A1 promoter [3] were 16.2% and 32%, respectively.
For the compound `Cc1ccc(-n2cc(C(=O)Nc3cc(F)cc(F)c3)c(=O)c3ccc(N(C)C)nc32)cc1OCCCCCCC[N+]1(C)CCCC1`, the figures for the inhibition with COL1A1 promoter [1] and with COL1A1 promoter [3] were 12.7% and 55.9%, respectively.
The corresponding values for `Cc1ccc(-n2cc(C(=O)Nc3cc(F)cc(F)c3)c(=O)c3ccc(N(C)C)nc32)cc1OCCCCCCC[N+](C)(C)C1CCCCC1` are 32.3% and 61.7%.
For the compound `CN(C)c1ccc2c(=O)c(C(=O)Nc3cc(F)cc(F)c3)cn(-c3ccc(OCCCCCCC[N+]45CCN(CC4)CC5)cc3F)c2n1`, the inhibition was 9.02% in the series with COL1A1 promoter [1] and 42.4% with COL1A1 promoter [3].
With `CN(C)c1ccc2c(=O)c(C(=O)Nc3cc(F)cc(F)c3)cn(-c3ccc(OCCCCCCC[N+]4(C)CCCCC4)cc3F)c2n1`, the inhibition entry in the series with COL1A1 promoter [1] and in the series on COL1A1 promoter [3] was “inactive” in each case. Moreover, the CC50 at 24 h in series [2] is less than 20 µM.
For the compound `Cc1cc(OCCCCCCC[N+]23CCN(CC2)CC3)ccc1-n1cc(C(=O)Nc2cc(F)cc(F)c2)c(=O)c2ccc(N(C)C)nc21`, the inhibition result with COL1A1 promoter [1] and with COL1A1 promoter [3] was “inactive” in each case. Also, the CC50 at 24 h in series [2] was less than 20 µM.
`CN1CC[N+](C)(CCCCCCCOc2cc(-n3cc(C(=O)Nc4cc(F)cc(F)c4)c(=O)c4ccc(N(C)C)nc43)ccc2Cl)CC1`: the inhibition in the series with COL1A1 promoter [1] was 27.5%; with COL1A1 promoter [3] it was 45.2%.
Consider `Cc1cc(OCCCCCCC[N+]2(C)CCCC2)cc(-n2cc(C(=O)Nc3cc(F)cc(F)c3)c(=O)c3ccc(N(C)C)nc32)c1`, for which the figures for the inhibition in the series on COL1A1 promoter [1] and with COL1A1 promoter [3] were 4.32% and 35.4%, respectively.
For the compound `CC[N+]1(CCCCCCCOc2ccc(-n3cc(C(=O)Nc4cc(F)cc(F)c4)c(=O)c4ccc(N(C)C)nc43)c(C)c2)CCCCC1`, the inhibition entry with COL1A1 promoter [1] and in the series on COL1A1 promoter [3] was “inactive” throughout. Also, the CC50 at 24 h in series [2] was less than 20 µM.
